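Protocol summary: plate cells (96-well), add compound at 5 concentrations, incubate 48 h, interpolate endpoints linearly. Here, GI50 denotes the concentration required for 50% inhibition of growth.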 The source made the active and inactive calls. Cut-off read from the data, not from the text of the source: active = GI50 up to about 1.1 µM and inactive = higher.
Experiments:
Test in all cases: growth of human tumour cells (NCI), 48 h
[1] = system: DLD-1
[2] = system: DMS-114
[3] = system: DMS-273
[4] = system: HOP-18
[5] = system: KM-20L2
[6] = system: LXFL 529
[7] = system: RXF 631
[8] = system: SNB-78
[9] = system: XF498

SMILES | GI50 [1] | GI50 [2] | GI50 [3] | GI50 [4] | GI50 [5] | GI50 [6] | GI50 [7] | GI50 [8] | GI50 [9]
O=[N+]([O-])c1ccc(Cl)cc1C1SCc2nc3ccccc3n21 (configuration not stated) | 37.2 µM (inactive) | 35.6 µM (inactive) | 31.6 µM (inactive) | 13 µM (inactive) | > 100 µM (inactive) | 48.3 µM (inactive) | 37.1 µM (inactive) | 42.9 µM (inactive) | 65.5 µM (inactive)
CC(=O)NC(Cc1ccccc1)C(=S)N1CCCC1 (configuration not stated) | > 100 µM (inactive) | > 100 µM (inactive) | > 100 µM (inactive) | 15.3 µM (inactive) | > 100 µM (inactive) | > 100 µM (inactive) | > 100 µM (inactive) | > 100 µM (inactive) | > 100 µM (inactive)
COC(=O)C12C3C4C5C3(C#N)C1C5(C(=O)OC)C42C(=O)N(C(C)C)C(C)C (configuration not stated) | > 50.2 µM (inactive) | > 100 µM (inactive) | > 42.5 µM (inactive) | > 100 µM (inactive) | > 100 µM (inactive) | > 92.9 µM (inactive) | > 95.5 µM (inactive) | > 100 µM (inactive) | > 63.7 µM (inactive)
NCCCCN(CCCN)/[N+]([O-])=N\O | > 100 µM (inactive) | > 100 µM (inactive) | > 100 µM (inactive) | > 100 µM (inactive) | > 100 µM (inactive) | > 100 µM (inactive) | – | > 100 µM (inactive) | –
O=C1C=CC2(O)OCC3C=C4O[C@@H]5OC6(CCCCC6)O[C@@H]5C4[C@@H]2[C@@H]13 (some centres not stated) | 22.4 µM (inactive) | 21.5 µM (inactive) | 50.4 µM (inactive) | > 100 µM (inactive) | 48.3 µM (inactive) | 15.1 µM (inactive) | – | 24.4 µM (inactive) | 27.2 µM (inactive)
NC(=O)NC1C(C(=O)O)N(Cc2ccccc2)C(=O)N1Cc1ccccc1 (configuration not stated) | > 100 µM (inactive) | > 100 µM (inactive) | – | – | > 100 µM (inactive) | > 100 µM (inactive) | – | > 100 µM (inactive) | > 100 µM (inactive)
COc1ccc(OCC(=O)O)c2c1CCCC2=O | > 100 µM (inactive) | > 100 µM (inactive) | > 100 µM (inactive) | – | – | > 100 µM (inactive) | > 100 µM (inactive) | > 100 µM (inactive) | 3.52 µM (inactive)
COc1cc(Nc2cnc3ccc(C(F)(F)F)cc3n2)cc(OC)c1OC | – | – | 25.5 µM (inactive) | > 100 µM (inactive) | 3.79 µM (inactive) | 27.4 µM (inactive) | – | > 100 µM (inactive) | –
CC1CCSC(N(C(=O)N(C)c2ccccc2)c2ccccc2)=N1 (configuration not stated) | > 100 µM (inactive) | > 100 µM (inactive) | > 100 µM (inactive) | – | > 100 µM (inactive) | > 100 µM (inactive) | – | > 100 µM (inactive) | > 100 µM (inactive)
CC[C@@]1(OC(=O)CN(C)C)C(=O)OCc2c1cc1n(c2=O)Cc2cc3ccccc3nc2-1 | 0.323 µM (active) | 0.0259 µM (active) | 0.01 µM (active) | 0.312 µM (active) | 0.249 µM (active) | 1.29 µM (inactive) | – | 7.67 µM (inactive) | 0.354 µM (active)
CN(C)[C@@H]1C(O)=C(C(=O)NCNc2nc3[nH]nnc3c(=O)[nH]2)C(=O)[C@@]2(O)C(O)=C3C(=O)c4c(O)cccc4[C@@](C)(O)[C@H]3C[C@@H]12 | 29.7 µM (inactive) | 1.52 µM (inactive) | 1.29 µM (inactive) | 2.19 µM (inactive) | 16.2 µM (inactive) | 53.1 µM (inactive) | 0.836 µM (active) | 1.81 µM (inactive) | 1.26 µM (inactive)
Cc1c2ccncc2c(C)c2c1[nH]c1ccc(Cl)cc12 | 2.15 µM (inactive) | 2.07 µM (inactive) | 1.59 µM (inactive) | 2.52 µM (inactive) | 2.56 µM (inactive) | 1.84 µM (inactive) | – | 3.94 µM (inactive) | 4.31 µM (inactive)
